Patent US20060052435A1, “Selective dopamin d3 receptor agonists for the treatment of sexual dysfunction” (priority 2001, published 2006)
pEC50: −log10 of the molar value.

Columns and labels:
[1] = biological target: human dopamine D2 long receptor (Homo sapiens, UniProt P14416)
ferrets = assay: 7-OH-DPAT-induced emesis in the ferret; assay type: in vivo
telemetry rats = assay: rat telemetry model of erection (intracavernosal pressure); assay type: in vivo; details: for agonist-induced erectile activity with concomitant L-741,626 and SB-277,011: L-741,626 2 mg/kg s.c. and SB-277,011 3 mg/kg s.c.; for proerectile effect (words): male models of erection / telemetry rats, agonist alone
Procedure: Erectile responses were recorded by measuring intracavernosal pressure and/or clitoral/vaginal blood flow using surgically implanted telemetric device. The specific details of the surgical procedures, data acquisition and analysis can be found in detail in Bernabe J, Rampin O, Sachs B D, Giuliano F. Intracavernous pressure during erection in rats: an integrative approach based on telemetric recording. Am. J. Physiol.

dopamine D3 receptor = dopamine D3 receptor (Homo sapiens, UniProt P35462); assay: cell-based
dopamine D3 receptor, sequence (P35462 whole entry, species assumed): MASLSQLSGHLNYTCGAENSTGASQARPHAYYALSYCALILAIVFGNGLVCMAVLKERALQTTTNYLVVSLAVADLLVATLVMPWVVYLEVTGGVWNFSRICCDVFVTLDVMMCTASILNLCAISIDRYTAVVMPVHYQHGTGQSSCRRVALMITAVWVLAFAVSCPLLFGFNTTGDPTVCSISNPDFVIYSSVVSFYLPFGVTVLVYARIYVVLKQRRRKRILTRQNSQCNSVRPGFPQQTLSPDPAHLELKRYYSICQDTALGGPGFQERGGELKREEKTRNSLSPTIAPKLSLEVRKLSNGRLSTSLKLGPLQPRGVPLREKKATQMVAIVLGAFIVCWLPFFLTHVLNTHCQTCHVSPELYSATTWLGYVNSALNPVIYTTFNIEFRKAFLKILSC

[2] = unbound plasma and whole brain concentrations in anaesthetised ferrets; details: s.c. dosing at the ED100 dose, n = 1
[3] = biological target: human recombinant D2short (hD2s) receptors (Homo sapiens, UniProt P14416); assay: inhibition of binding of [3H]-spiperone; details: n = 3-11
human recombinant D2short (hD2s) receptors, sequence (P14416 1-414 isoform P14416-2): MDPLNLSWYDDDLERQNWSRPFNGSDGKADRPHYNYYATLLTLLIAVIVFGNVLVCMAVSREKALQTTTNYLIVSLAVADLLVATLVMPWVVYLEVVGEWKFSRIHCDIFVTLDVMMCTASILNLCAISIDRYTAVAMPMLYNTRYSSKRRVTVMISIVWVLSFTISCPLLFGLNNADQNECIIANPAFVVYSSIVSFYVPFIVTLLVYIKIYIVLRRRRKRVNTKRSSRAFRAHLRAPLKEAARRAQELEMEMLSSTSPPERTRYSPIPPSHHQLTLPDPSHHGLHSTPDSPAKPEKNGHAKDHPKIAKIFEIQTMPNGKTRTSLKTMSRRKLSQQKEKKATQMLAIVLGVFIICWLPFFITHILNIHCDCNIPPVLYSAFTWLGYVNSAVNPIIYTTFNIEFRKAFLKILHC

anaesthetised dog [4] = assay: haemodynamics in the anaesthetised dog; assay type: in vivo
Text: Male beagles were anaesthetised with a mixture of chloralose and urethane, following pre-medication with piritramide. They were instrumented to measure arterial blood pressure, cardiac output, E.C.G., pudendal artery blood flow (PAF) and intra-cavernosal pressure (ICP). Other parameters such as heart rate and vascular resistance were derived from the primary signals. Following a period of equilibration, a series of control readings were taken and the effects of pelvic nerve stimulation at 4 and 8 Hz, on ICP and PAF were measured. Compounds were administered subcutaneously in the dorsal neck region via an implanted catheter, in the dose range of 0.3-3000 μg(base)/kg. Following each dose, parameters were measured at fixed intervals for 30 min.
Results were analysed as percent change from the final control values for each dog and mean values for three dogs were used.

anaesthetised dog [5] = assay: emesis in the chloralose anaesthetised dog; details: male, beagle, dog, in vivo, sc, 30 min
Procedure: Male beagles, 11-17 kg were used. Following an overnight fast, animals were anaesthetised with chloralose (80 mg kg^−1 i.v.), having first been injected with an anaesthetic dose of the short acting barbiturate, thiopentone (15 mg kg^−1 i.v.). Following tracheal intubation, which ensured a patent airway even during the expulsion phase of the emetic response, the left femoral vein and artery were cannulated for further administration of anaesthetic and for recording haemodynamic parameters, respectively. […] During the stabilisation period, respiratory rate was monitored to ensure that central respiratory centres were not deeply depressed, since the CNS efferent component of the emetic reflex is essentially conveyed via respiratory motor neurones. […] Animals were observed closely for 30 min post-dose and motor (e.g. swallowing, eye blinking, limb movements, changes in respiratory rate and depth, retching and vomiting) and haemodynamic changes noted and recorded. […] At the end of an experiment animals were sacrificed with an overdose of pentobarbitone.
Observations made on individual animals were used to determine the percentage of animals that retched when injected with a particular dose level of test compound. Percentage of animals retching was then used to construct a dose response curve and an ED50 value determined from the appropriate curve.

human dopamine D2 long receptor, sequence (P14416 whole entry): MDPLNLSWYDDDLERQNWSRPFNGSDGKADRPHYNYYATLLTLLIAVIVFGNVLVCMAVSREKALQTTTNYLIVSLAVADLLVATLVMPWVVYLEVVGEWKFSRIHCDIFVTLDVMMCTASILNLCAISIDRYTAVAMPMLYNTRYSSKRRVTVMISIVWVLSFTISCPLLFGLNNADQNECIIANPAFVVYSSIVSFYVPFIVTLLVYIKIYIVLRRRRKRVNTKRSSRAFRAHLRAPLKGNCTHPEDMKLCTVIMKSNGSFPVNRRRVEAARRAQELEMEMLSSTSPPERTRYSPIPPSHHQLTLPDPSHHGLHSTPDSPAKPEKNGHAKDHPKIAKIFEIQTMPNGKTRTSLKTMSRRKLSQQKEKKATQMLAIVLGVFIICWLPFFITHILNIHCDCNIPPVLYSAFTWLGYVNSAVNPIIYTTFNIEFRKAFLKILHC

## CCCN1CCC[C@@H]2Cc3nc(N)ncc3C[C@H]21 [Quinelorane]
[1]
  pEC50: 8.21

## CCCN(CCC)C1CCc2ccc(O)cc2C1 (stereo not drawn) [Example 7-OH-DPAT]
ferrets; 0.1 mg/kg s.c., observed for 6 h, control animals
  emetic response, total retches and vomits (mean±s.e.m.): 78.0±9.0
Telemetry rats
  agonist-induced erectile activity with concomitant L-741,626 and SB-277,011: abolishes all 7-OH-DPAT-induced erectile activity
  proerectile effect (words): induce/enhance proerectile effects

## CCCNC1CCc2nc(N)sc2C1.Cl.Cl (stereo not drawn) [Pramipexole, 2-amino-4,5,6,7-tetrahydro-6-propylamino-benzthiazole-dihydrochloride]
Telemetry rats
  agonist-induced erectile activity with concomitant L-741,626 and SB-277,011: abolishes all pramipexole-induced erectile activity
  proerectile effect (words): induces a proerectile effect
Telemetry rats; Pramipexole 0.1 μg/kg s.c.
  No of erectogenic events/15 min: 2.8 ± 0.2 n = 5 erectogenic events/15 min
Telemetry rats; listed as pramipexole
  proerectile effect (words): induce/enhance proerectile effects
Dopamine D3 receptor
  pEC50: 9.21

## CCCN(CCC)[C@@H]1CCc2cc(CS(=O)(=O)c3ccc(OC)cc3)ccc2C1 [GR218231]
[2]
  Brain conc^n: 1670 ng/g
  Plu/Ki hD2s (ratio of unbound plasma concentration to binding affinity): 1.3
  Plu/Ki hD3 (ratio of unbound plasma concentration to binding affinity): 95
[3]
  Affinity estimates (pKi ± s.e.m.) hD2s: 6.8 ± 0.44
ferrets; highest dose of 10 mg/kg
  animals in which emesis was blocked: ⅔
ferrets; s.c., minimum dose completely inhibiting emesis in all animals, n = 3
  Antagonist potency ED100 versus 7-OH-DPAT-induced emesis: >10 mg/kg

## CCCN1CCOC(c2ccc(O)c(C(N)=O)c2)C1 (stereo not drawn) [Example 35, 2-Hydroxy-5-(4-propylmorpholin-2-yl)benzamide]
[1]
  pEC50: ~4.98

## CCCN1CCOC(c2ccc(F)c(O)c2)C1 (racemic) [Example 23a + 23b (racemate)]
[1]
  pEC50: < 5.30

## CCCN1CCOC(c2cc(O)cc(O)c2)C1 (single isomer, unassigned) [Example 15a, R-5-(4-Propylmorpholin-2-yl)benzene-1,3-diol]
[1]
  pEC50: 5.76

## CN1CCc2cccc3c2[C@H]1Cc1ccc(O)c(O)c1-3 [Apomorphine]
Telemetry rats
  proerectile effect (words): induce/enhance proerectile effects
Anaesthetised dog [4]; dog, in vivo
  Geometric mean ED30 (fall in TPR): 11.7 μg/kg s.c.
  cardiac output at the highest dose levels: approximately doubled
Anaesthetised dog [4]; s.c.
  effect on cardiac output and heart rate: increases in cardiac output and heart rate
Anaesthetised dog [4]; s.c., doses up to 3000 μg/kg
  effect on total vascular resistance (TVR; TPR): reduction in total vascular resistance

## CCCN1CCOC(c2cc(O)cc(O)c2)C1 (racemic) [Example 15a + 15b (racemate)]
[1]
  pEC50: < 5.00

## c1ccc(N2CCN(C[C@H]3CC[C@H](Nc4ncccn4)CC3)CC2)cc1 [trans-[4-[(4-Phenylpiperazin-1-yl)methyl]cyclohexyl]-pyrimidin-2-ylamine]
Anaesthetised dog [5]
  dose at which emesis was observed: 0.1 mg/kg
[1]
  pEC50: 8.42
Telemetry rats; L-741,626 2 mg/kg s.c.
  erectogenic effect in the presence of selective D2 receptor antagonist L-741,626: abolished
Telemetry rats
  proerectile effect (words): produced erections
Anaesthetised dog [4]; dog, in vivo
  Geometric mean ED30 (fall in TPR): 44.6 μg/kg s.c.
  cardiac output at the highest dose levels: approximately doubled
Anaesthetised dog [4]; dog, in vivo, sc
  effect on cardiac output and heart rate: increases in cardiac output and heart rate

## CCCN1CCOC(c2ccc(F)c(O)c2)C1 (single isomer, unassigned) [Example 23a, R-(+)-2-Fluoro-5-(4-propylmorpholin-2-yl)phenol]
[1]
  pEC50: < 5.30

## CCCN1CCOC(c2ccc(O)c(N)c2)C1 (stereo not drawn) [Example 37, 2-Amino-4-(4-propylmorpholin-2-yl)phenol]
[1]
  pEC50: < 4.00
